Reference: PubChem BioAssay AID248 (DTP/NCI, 2004)
Where “and” joins values, the source holds several entries; their conditions need not be identical. Equal entries are not always repeated. Toxic doses and inconclusive results are not listed. Rule as the data show it: active = T/C of 150% or more; inactive = T/C below 125%.

Tested on: L1210 leukemia ip in BDF1 mice, survival T/C
Assay: NCI In Vivo Anticancer Drug Screen. Data for tumor model L1210 Leukemia (intraperitoneal) in B6D2F1 (BDF1) mice
Details: endpoint: mean survival time, higher = longer survival
In short: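 Each compound was tested against a transplantable tumor grown in mice. The endpoint was survival, with treated animals benchmarked against vehicle controls as a simple ratio.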

[1] = dose: 50.0 mg/kg/injection, schedule: Q04DX003 (ip), vehicle: saline
[2] = dose: 100.0 mg/kg/injection, schedule: Q04DX003 (ip), vehicle: saline
[3] = dose: 100.0 mg/kg/injection, schedule: Q01DX001 (ip), vehicle: saline
[4] = dose: 100.0 mg/kg/injection, schedule: Q04DX002 (ip), vehicle: Klucel (hydroxypropylcellulose) (HPC)
[5] = dose: 200.0 mg/kg/injection, schedule: Q01DX001 (ip), vehicle: saline
[6] = dose: 200.0 mg/kg/injection, schedule: Q04DX002 (ip), vehicle: Klucel (hydroxypropylcellulose) (HPC)
[7] = dose: 400.0 mg/kg/injection, schedule: Q01DX001 (ip), vehicle: saline
[8] = dose: 400.0 mg/kg/injection, schedule: Q04DX002 (ip), vehicle: Klucel (hydroxypropylcellulose) (HPC)
[9] = dose: 50.0 mg/kg/injection, schedule: Q01DX009 (ip), vehicle: saline with Tween-80
[10] = dose: 100.0 mg/kg/injection, schedule: Q01DX009 (ip), vehicle: saline with Tween-80
[11] = dose: 200.0 mg/kg/injection, schedule: Q01DX009 (ip), vehicle: saline with Tween-80
[12] = dose: 100.0 mg/kg/injection, schedule: Q04DX003 (ip), vehicle: Klucel (hydroxypropylcellulose) (HPC)
[13] = dose: 200.0 mg/kg/injection, schedule: Q04DX003 (ip), vehicle: Klucel (hydroxypropylcellulose) (HPC)
[14] = dose: 400.0 mg/kg/injection, schedule: Q04DX003 (ip), vehicle: Klucel (hydroxypropylcellulose) (HPC)
[15] = dose: 25.0 mg/kg/injection, schedule: Q04DX002 (ip), vehicle: saline with Tween-80
[16] = dose: 50.0 mg/kg/injection, schedule: Q04DX002 (ip), vehicle: saline with Tween-80
[17] = dose: 100.0 mg/kg/injection, schedule: Q04DX002 (ip), vehicle: saline with Tween-80
[18] = dose: 100.0 mg/kg/injection, schedule: Q01DX009 (ip), vehicle: Klucel (hydroxypropylcellulose) (HPC)
[19] = dose: 200.0 mg/kg/injection, schedule: Q01DX009 (ip), vehicle: Klucel (hydroxypropylcellulose) (HPC)
[20] = dose: 400.0 mg/kg/injection, schedule: Q01DX009 (ip), vehicle: Klucel (hydroxypropylcellulose) (HPC)

Measured: T/C

Cc1[nH]c(=S)sc1C
inactive: dose: 50.0 mg/kg/injection, schedule: Q01DX001 (ip), vehicle: carboxymethylcellulose (CMC) 100 % of control | dose: 50.0 mg/kg/injection, schedule: Q01DX009 (ip), vehicle: saline 97 % of control | [1] 92 % of control | dose: 100.0 mg/kg/injection, schedule: Q01DX001 (ip), vehicle: carboxymethylcellulose (CMC) 88 % of control | dose: 100.0 mg/kg/injection, schedule: Q01DX009 (ip), vehicle: saline 97 % of control | [2] 101 % of control | dose: 200.0 mg/kg/injection, schedule: Q04DX003 (ip), vehicle: saline 88 % of control

Nc1ccc(S(=O)(=O)Nc2ncccn2)cc1
inactive: [3] 96 % of control | [4] 103 % of control | [5] 97 % of control | [6] 92 % of control | [7] 103 % of control | [8] 103 % of control

CCCCCCCCCCCCCCCC(=O)OC(C)COC (configuration not stated)
inactive: [9] 108 % of control | dose: 100.0 mg/kg/injection, schedule: Q01DX001 (ip), vehicle: other 102 % of control | [10] 98 % of control | dose: 100.0 mg/kg/injection, schedule: Q04DX003 (ip), vehicle: other 111 % of control | dose: 200.0 mg/kg/injection, schedule: Q01DX001 (ip), vehicle: other 94 % of control | [11] 98 % of control | dose: 200.0 mg/kg/injection, schedule: Q04DX003 (ip), vehicle: other 107 % of control | dose: 400.0 mg/kg/injection, schedule: Q01DX001 (ip), vehicle: other 101 % of control | dose: 400.0 mg/kg/injection, schedule: Q04DX003 (ip), vehicle: other 110 % of control

CSc1ccc(NC(=O)Nc2c(C)cc(C)cc2C)cc1
inactive: dose: 25.0 mg/kg/injection, schedule: Q01DX009 (ip), vehicle: other 92 % of control | dose: 50.0 mg/kg/injection, schedule: Q01DX009 (ip), vehicle: other 93 % of control | dose: 100.0 mg/kg/injection, schedule: Q01DX009 (ip), vehicle: other 102 % of control

C(=N\N1CCN(/N=C/c2cccc(OCc3ccccc3)c2)CC1)/c1cccc(OCc2ccccc2)c1
inactive: [3] 96 % of control | [5] 87 % of control | [7] 90 % of control

CCCCCCCCCCCCCCCCCCOc1ccc(Sc2ccc([N+](=O)[O-])cc2)cc1
inactive: [12] 87 % of control | [13] 88 % of control | [14] 88 % of control

C=CS(=O)(=O)CCCCCCCCCCCCCCCCCC
inactive: [12] 91 % of control | [13] 91 % of control | [14] 98 % of control

CCCCCCCCCCCC(=O)N/N=C(\c1ccccc1)c1ccc(Cl)cc1
inactive: [4] 103 % of control | [6] 103 % of control | [8] 122 % of control

Cc1nc(N)sc1C
inactive: [15] 100 % of control | dose: 25.0 mg/kg/injection, schedule: Q04DX003 (ip), vehicle: saline 89 % of control | [16] 102 % of control | [1] 100 % of control | dose: 75.0 mg/kg/injection, schedule: Q01DX001 (ip), vehicle: carboxymethylcellulose (CMC) 100 % of control | [2] 102 % of control | dose: 150.0 mg/kg/injection, schedule: Q01DX001 (ip), vehicle: carboxymethylcellulose (CMC) 102 % of control | dose: 300.0 mg/kg/injection, schedule: Q01DX001 (ip), vehicle: carboxymethylcellulose (CMC) 100 % of control

CCCCNC(C)(C)C(SSSC(C)=O)c1ccco1 (configuration not stated)
inactive: dose: 12.5 mg/kg/injection, schedule: Q01DX009 (ip), vehicle: saline with Tween-80 100 % of control | dose: 12.5 mg/kg/injection, schedule: Q04DX003 (ip), vehicle: saline with Tween-80 102 % of control | dose: 25.0 mg/kg/injection, schedule: Q01DX009 (ip), vehicle: saline with Tween-80 104 % of control | dose: 25.0 mg/kg/injection, schedule: Q04DX003 (ip), vehicle: saline with Tween-80 106 % of control | [9] 108 % of control | dose: 50.0 mg/kg/injection, schedule: Q04DX003 (ip), vehicle: saline with Tween-80 96 % of control | dose: 100.0 mg/kg/injection, schedule: Q04DX003 (ip), vehicle: saline with Tween-80 102 % of control

CC(C)c1cccc2ccccc12
inactive: dose: 100.0 mg/kg/injection, schedule: Q04DX003 (ip), vehicle: acetone 95 % of control | dose: 200.0 mg/kg/injection, schedule: Q04DX003 (ip), vehicle: acetone 88 % of control

O=C1c2cccc3cccc(c23)C1(Br)C(Br)c1ccccc1 (configuration not stated)
inactive: [17] 97 % of control | dose: 200.0 mg/kg/injection, schedule: Q04DX002 (ip), vehicle: saline with Tween-80 97 % of control | dose: 400.0 mg/kg/injection, schedule: Q04DX002 (ip), vehicle: saline with Tween-80 97 % of control

Nc1ncnc(Nc2ccc([N+](=O)[O-])cc2)c1[N+](=O)[O-]
inactive: [18] 97 % of control | [19] 92 % of control | [20] 96 % of control

COc1ccc(CC(C)=C(C#N)C#N)cc1OC
inactive: [15] 103 % of control | [16] 97 % of control | [17] 97 % of control

COc1ccc(-c2n[nH]c(C(F)(F)F)c2N=NN(C)C)cc1OC
inactive: dose: 75.0 mg/kg/injection, schedule: Q01DX001 (ip), vehicle: other 93 % of control | dose: 150.0 mg/kg/injection, schedule: Q01DX001 (ip), vehicle: other 94 % of control | dose: 300.0 mg/kg/injection, schedule: Q01DX001 (ip), vehicle: other 91 % of control

COc1ccc(C(=O)/C=C/c2ccc3c(c2)OCO3)cc1OC
inactive: [18] 87 % of control | [12] 98 % of control | [19] 90 % of control | [13] 98 % of control | [20] 90 % of control | [14] 96 % of control

O=C1CCC2CC1CCC2=O
inactive: dose: 18.75 mg/kg/injection, schedule: Q01DX009 (ip), vehicle: Klucel (hydroxypropylcellulose) (HPC) 101 % of control | dose: 18.75 mg/kg/injection, schedule: Q04DX003 (ip), vehicle: Klucel (hydroxypropylcellulose) (HPC) 101 % of control | dose: 37.5 mg/kg/injection, schedule: Q01DX009 (ip), vehicle: Klucel (hydroxypropylcellulose) (HPC) 101 % of control | dose: 37.5 mg/kg/injection, schedule: Q04DX003 (ip), vehicle: Klucel (hydroxypropylcellulose) (HPC) 97 % of control | dose: 75.0 mg/kg/injection, schedule: Q01DX009 (ip), vehicle: Klucel (hydroxypropylcellulose) (HPC) 98 % of control | dose: 75.0 mg/kg/injection, schedule: Q04DX003 (ip), vehicle: Klucel (hydroxypropylcellulose) (HPC) 97 % of control

CC(=O)c1c(C)c(Cl)c(C)c(Cl)c1O
inactive: [18] 101 % of control | [4] 103 % of control and 107 % of control | [19] 104 % of control | [6] 103 % of control and 114 % of control | [20] 90 % of control | [8] 95 % of control and 107 % of control

O=C(Nc1cccc(O)c1)Oc1ccccc1
inactive: [10] 98 % of control | [11] 90 % of control | dose: 400.0 mg/kg/injection, schedule: Q01DX009 (ip), vehicle: saline with Tween-80 89 % of control
